Data as given in patent US8338565B2, “Macrocyclic compounds for inhibition of tumor necrosis factor alpha” (Ensemble Therapeutics Corporation, priority 2008, dated 2012).
Where two headings read alike, the source gives them in different places.

Target: T1, TNFα / TNFα receptor (TNFα R1/Fc) (Homo sapiens, UniProt P01375)
T1 construct: purchased R&D Systems
Assay: Inhibition of binding of TNFα to the TNFα receptor (plate ELISA competition)
Conditions: Table 2
In short: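 Plates were coated with TNFα at 15 nM. Test compound and 8.33 nM receptor-Fc (PBST, 2% DMSO) were first mixed in solution for 30 min at room temperature, then transferred to the plates for another 30 min. Competition was read by absorbance at 450 nm after HRP anti-human IgG Fc detection with TMB.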

[1] = read-out: Activity (IC50, inhibition of TNFα binding to TNFα R1/Fc)
[2] = Activity (IC50, inhibition of TNFα binding to TNFα R1/Fc)

T1 sequence (P01375 77-233 limits assumed, species assumed): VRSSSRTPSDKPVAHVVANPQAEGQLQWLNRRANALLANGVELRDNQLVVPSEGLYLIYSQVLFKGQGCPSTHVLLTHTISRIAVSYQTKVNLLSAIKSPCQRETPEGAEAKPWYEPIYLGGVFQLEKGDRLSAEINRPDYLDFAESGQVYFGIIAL

| Structure (SMILES) | IC50 [1] | IC50 [2] |
| --- | --- | --- |
| O=C1COc2ccc(cc2)C[C@H](C(=O)N[C@@H](Cc2ccccc2)C(=O)O)NC(=O)[C@@H](CCc2ccccc2)NC(=O)[C@H](Cc2ccc(-c3ccccc3)cc2)NC(=O)[C@@H](Cc2cccs2)N1 [Compound 561] |  | < 10 µM |
| O=C1COc2ccc(cc2)C[C@H](C(=O)N[C@H](Cc2ccccc2)C(=O)O)NC(=O)[C@@H](CCc2ccccc2)NC(=O)[C@H](Cc2ccc(-c3ccccc3)cc2)NC(=O)[C@@H](Cc2cccs2)N1 [Compound 562] |  | < 10 µM |
| O=C1COc2ccc(cc2)C[C@@H](C(=O)N[C@@H](CO)C(=O)O)NC(=O)[C@H](Cc2ccc(O)cc2)NC(=O)[C@@H](Cc2ccc(-c3ccccc3)cc2)NC(=O)[C@H](Cc2cccs2)N1 [Compound 563] | 30 to 100 µM |  |
| O=C1COc2ccc(cc2)C[C@@H](C(=O)NCS(=O)(=O)O)NC(=O)[C@H](Cc2ccc(O)cc2)NC(=O)[C@@H](Cc2ccc(-c3ccccc3)cc2)NC(=O)[C@H](Cc2cccs2)N1 [Compound 566] |  | 10 to 30 µM |
| O=C(O)CCCNC(=O)[C@@H]1Cc2ccc(cc2)OCC(=O)N[C@@H](Cc2ccc(-c3ccccc3)cc2)C(=O)N[C@H](Cc2ccc(-c3ccccc3)cc2)C(=O)N[C@@H](CCc2ccccc2)C(=O)N1 [Compound 568] | 30 to 100 µM |  |
| O=C(O)CNC(=O)[C@@H]1Cc2ccc(cc2)OCC(=O)N[C@@H](Cc2ccc(-c3ccccc3)cc2)C(=O)N[C@H](Cc2ccc(-c3ccccc3)cc2)C(=O)N[C@@H](CCc2ccccc2)C(=O)N1 [Compound 570] | 10 to 30 µM |  |
| O=C1COc2ccc(cc2)C[C@@H](C(=O)N[C@H](Cc2ccccc2)C(=O)O)NC(=O)[C@H](CCc2ccccc2)NC(=O)[C@@H](Cc2ccc(-c3ccccc3)cc2)NC(=O)[C@H](Cc2ccc(-c3ccccc3)cc2)N1 [Compound 573] | < 10 µM |  |
| O=C1COc2ccc(cc2)C[C@@H](C(=O)N[C@@H](Cc2ccccc2)C(=O)O)NC(=O)[C@H](CCc2ccccc2)NC(=O)[C@@H](Cc2ccc(-c3ccccc3)cc2)NC(=O)[C@H](Cc2ccc(-c3ccccc3)cc2)N1 [Compound 574] | > 100 µM |  |

Further lines, with some results ahead:

| IC50 [1] | Structure (SMILES) | IC50 [2] |
| --- | --- | --- |
| < 10 µM | O=C(O)CCNC(=O)[C@@H]1Cc2ccc(cc2)OCC(=O)N[C@@H](Cc2ccncc2)C(=O)N[C@H](Cc2ccc(-c3ccccc3)cc2)C(=O)N[C@@H](CCc2ccccc2)C(=O)N1 [Compound 559] |  |
| < 10 µM | O=C(O)CCCNC(=O)[C@@H]1Cc2ccc(cc2)OCC(=O)N[C@@H](Cc2ccncc2)C(=O)N[C@H](Cc2ccc(-c3ccccc3)cc2)C(=O)N[C@@H](CCc2ccccc2)C(=O)N1 [Compound 560] |  |
| < 10 µM | O=C(O)CCNC(=O)[C@@H]1Cc2ccc(cc2)OCC(=O)N[C@@H](Cc2cccs2)C(=O)N[C@H](Cc2ccc(-c3ccccc3)cc2)C(=O)N[C@@H](Cc2ccc(O)cc2)C(=O)N1 [Compound 564] |  |
| < 10 µM | O=C1COc2ccc(cc2)C[C@@H](C(=O)N[C@H](Cc2ccccc2)C(=O)O)NC(=O)[C@H](Cc2ccc(O)cc2)NC(=O)[C@@H](Cc2ccc(-c3ccccc3)cc2)NC(=O)[C@H](Cc2cccs2)N1 [Compound 565] |  |
| < 10 µM | O=C1COc2ccc(cc2)C[C@@H](C(=O)N[C@@H](Cc2ccc(O)cc2)C(=O)O)NC(=O)[C@H](CCc2ccccc2)NC(=O)[C@@H](Cc2ccc(-c3ccccc3)cc2)NC(=O)[C@H](Cc2ccc(-c3ccccc3)cc2)N1 [Compound 567] |  |
| < 10 µM | O=C(O)CCNC(=O)[C@@H]1Cc2ccc(cc2)OCC(=O)N[C@@H](Cc2ccc(-c3ccccc3)cc2)C(=O)N[C@H](Cc2ccc(-c3ccccc3)cc2)C(=O)N[C@@H](CCc2ccccc2)C(=O)N1 [Compound 569] |  |
| < 10 µM | O=C1COc2ccc(cc2)C[C@@H](C(=O)N[C@H](CO)C(=O)O)NC(=O)[C@H](CCc2ccccc2)NC(=O)[C@@H](Cc2ccc(-c3ccccc3)cc2)NC(=O)[C@H](Cc2ccc(-c3ccccc3)cc2)N1 [Compound 571] |  |
| < 10 µM | C[C@H](NC(=O)[C@@H]1Cc2ccc(cc2)OCC(=O)N[C@@H](Cc2ccc(-c3ccccc3)cc2)C(=O)N[C@H](Cc2ccc(-c3ccccc3)cc2)C(=O)N[C@@H](CCc2ccccc2)C(=O)N1)C(=O)O [Compound 572] |  |
